Data published in patent US20090221624A1, “4-AMINOQUINOLINE COMPOUNDS FOR TREATING VIRUS-RELATED CONDITIONS” (priority 2005, published 2009).

What was measured:
[1] = system: HCV replicon (Clone A cells, Huh7, subgenomic hepatits C virus RNA); assay: HCV Neo screening assay (HCV replicon, NPTII ELISA); assay type: cell-based, hepatitis C virus; conditions: for EC50 / inhibition at 25 µM: Hepatitis C virus, Huh-7; for EC50: Secondary Data, HCV; for inhibition at 25 µM: primary screening, 25 μM final concentration, 24 hours, percent inhibition of viral replication, read-out: HCV Inh; for HCV TI: therapeutic index CC50/EC50, HCV
RSV minigenome = assay: RSV minigenome-dependent β-galactosidase expression assay (RSV β-Gal); assay type: cell-based, respiratory syncytial virus; conditions: for EC50 / inhibition at 25 µM: human respiratory syncytial virus; for EC50: Secondary Data, RSV, read-out: RSV EC50; for inhibition at 25 µM: primary screening, 25 μM final concentration, 24 hours, percent inhibition of viral replication, read-out: RSV Inh; for RSV TI: therapeutic index CC50/EC50, RSV
DNG (D2-hRuPac cells) = assay: DNG antiviral activity, D2-hRuPac cells, Renilla luciferase; assay type: cell-based, Dengue fever virus; conditions: Dengue virus, secondary screening
YFV (YF-hRuPac cells) = assay: microbe, parasite or virus in culture; assay type: cell-based, yellow fever virus; conditions: for inhibition at 25 µM / EC50: Yellow fever virus; for inhibition at 25 µM: 24 h, read-out: YFV Inh; for EC50: read-out: YFV EC50
EBOV minigenome = assay: microbe, parasite or virus in culture; assay type: cell-based, Ebola virus; conditions: Zaire ebolavirus; for inhibition at 25 µM: 24 h, read-out: EBOV Inh; for EC50: read-out: EBOV EC50
SINV (SR19-F-luc cells) = assay: SINV antiviral activity, SR19-F-luc cells, Firefly luciferase; assay type: cell-based; conditions: Sindbis virus; for inhibition at 25 µM: primary screening, 25 μM final concentration, 24 hours, percent inhibition of viral replication, read-out: SINV Inh; for EC50: secondary screening, SR19-F-luc cells
WNV (WN-hRuPac cells) = assay: WNV antiviral activity, WN-hRuPac cells, Renilla luciferase; assay type: cell-based, West Nile virus; conditions: for EC50 / inhibition at 25 µM: West Nile virus; for EC50: Secondary Data, WNV, read-out: WNV EC50; for inhibition at 25 µM: primary screening, 25 μM final concentration, 24 hours, percent inhibition of viral replication, read-out: WNV Inh; for WNV TI: therapeutic index CC50/EC50, WNV

| Structure (SMILES) | inhibition at 25 µM [1] [%] | EC50 (RSV minigenome) [µM] | inhibition at 25 µM (RSV minigenome) [%] | RSV TI (RSV minigenome) | EC50 (DNG (D2-hRuPac cells)) [µM] | YFV TI (YFV (YF-hRuPac cells)) | inhibition at 25 µM (YFV (YF-hRuPac cells)) [%] | EC50 (YFV (YF-hRuPac cells)) [µM] | CC50 (in vitro; DNG CC50) [µM] | CC50 (in vitro; EBOV CC50) [µM] | CC50 (in vitro; HCV CC50) [µM] | CC50 (in vitro; RSV CC50) [µM] | CC50 (in vitro; SINV CC50) [µM] | CC50 (in vitro; WNV CC50) [µM] | CC50 (in vitro; YFV CC50) [µM] | inhibition at 25 µM (EBOV minigenome) [%] | inhibition at 25 µM (SINV (SR19-F-luc cells)) [%] | EC50 (SINV (SR19-F-luc cells)) [µM] | EC50 (WNV (WN-hRuPac cells)) [µM] | inhibition at 25 µM (WNV (WN-hRuPac cells)) [%] | also measured |
| --- | --- | --- | --- | --- | --- | --- | --- | --- | --- | --- | --- | --- | --- | --- | --- | --- | --- | --- | --- | --- | --- |
| CCc1ccccc1Nc1c2ccccc2nc2ccccc12 [Compound 2] | 154 | 1.3 | 99.8 | 25.33 | 21.3 | 4.95 | 71.8 | 6.65 | 32.9 | 32.9 | 6.12 | 32.9 | 32.9 | 32.9 | 32.9 | 20.1 | 70.2 | 19.3 | 17.8 | 49.6 | EC50 [1]: 8 µM; HCV TI [1]: 0.77; EC50 (EBOV minigenome): 38.7 µM; WNV TI (WNV (WN-hRuPac cells)): 1.85 |
| COc1ccc2nc(C)cc(Nc3ccc(OCc4ccccc4Cl)cc3)c2c1 [Compound 43] | 95.4 | 2.24 | 100 | 11.63 | 1.65 | 18.48 | 100 | 1.41 | 26.1 | 26.1 | 2.09 | 26.1 | 26.1 | 26.1 | 26.1 | 98.7 | 99.7 | 4.08 | 5.45 | 99.9 | EC50 [1]: 1.6 µM; HCV TI [1]: 1.31; EC50 (EBOV minigenome): 75 µM; WNV TI (WNV (WN-hRuPac cells)): 4.78 |
| Cc1ccc2nc(C)cc(NCc3ccccc3)c2c1 [Compound 18] | 36.9 | 5.57 | 88.6 | 10.12 | 31.5 | 6.21 | 61.5 | 9.07 | 56.4 | 56.4 | – | 56.4 | 56.4 | 56.4 | 56.4 | -29.5 | 54.4 | 15.3 | 21.3 | 63.9 | WNV TI (WNV (WN-hRuPac cells)): 2.65 |
| Cc1ccc2nc3c(c(Nc4cccc(C(F)(F)F)c4)c2c1)CCC3 [Compound 26] | 148 | 4.1 | 99.9 | 12.95 | 48.2 | 8.88 | 77.2 | 5.98 | 53.1 | 53.1 | 8.35 | 53.1 | 53.1 | 53.1 | 53.1 | 38.8 | 53.3 | 18.5 | 3.71 | 62.2 | EC50 [1]: 7.57 µM; HCV TI [1]: 1.1; EC50 (EBOV minigenome): 75 µM; WNV TI (WNV (WN-hRuPac cells)): 14.32 |
| CCOC(=O)c1cnc2ccc(OCC)cc2c1Nc1ccc(I)cc1 [Compound 32] | -11.1 | 3.5 | 48.3 | 21.43 | ≥ 75 | – | -16.9 | ≥ 75 | ≥ 75 | ≥ 75 | ≥ 75 | ≥ 75 | ≥ 75 | ≥ 75 | ≥ 75 | 31.9 | -17.6 | ≥ 75 | ≥ 75 | -2.69 | EC50 (EBOV minigenome): 75 µM |
| CCOc1ccc2nc(C)cc(Nc3ccc(N(C)C)cc3)c2c1 [Compound 57] | 136 | 4.56 | 97.9 | 6.8 | 6.28 | 11.24 | 95.8 | 2.76 | 31 | 31 | 4.23 | 31 | 31 | 31 | 31 | 70.8 | 87.7 | 3.97 | 3.6 | 85.7 | EC50 [1]: 4.98 µM; HCV TI [1]: 0.85; EC50 (EBOV minigenome): 75 µM; WNV TI (WNV (WN-hRuPac cells)): 8.62 |
| CCOC(=O)c1cnc2c(Cl)cc(Cl)cc2c1NCc1ccco1 [Compound 52] | 76.5 | 2.51 | 99.1 | 17.57 | 15.8 | 8.84 | 90 | 4.99 | 44.1 | 44.1 | 70.2 | 44.1 | 44.1 | 44.1 | 44.1 | 76.9 | 10.2 | 24.8 | 10.8 | 88.9 | EC50 [1]: 12.5 µM; HCV TI [1]: 5.62; EC50 (EBOV minigenome): 13.2 µM; WNV TI (WNV (WN-hRuPac cells)): 4.08 |
| CCOC(=O)c1cnc2ccccc2c1NCc1ccco1 [Compound 30] | -18.1 | 1.45 | 80.3 | 38.18 | 12 | 10.07 | 92.5 | 5.5 | 55.4 | 55.4 | ≥ 75 | 55.4 | 55.4 | 55.4 | 55.4 | 71 | -9.95 | ≥ 75 | 4.6 | 93.7 | EC50 (EBOV minigenome): 12.6 µM; WNV TI (WNV (WN-hRuPac cells)): 12.04 |
| Cc1ccc(Nc2cc(C)nc3c2ccc2ccccc23)cc1 [Compound 9] | 98.3 | 4.1 | 88.2 | 17.8 | ≥ 75 | 13.51 | 76.2 | 5.4 | 73 | 73 | 9.83 | 73 | 73 | 73 | 73 | -17.1 | 48.2 | ≥ 75 | 30.6 | 33.4 | EC50 [1]: 1.77 µM; HCV TI [1]: 5.55; EC50 (EBOV minigenome): 61.5 µM; WNV TI (WNV (WN-hRuPac cells)): 2.38 |
| CCOC(=O)c1cnc2c(OC)cccc2c1NCC(C)O (stereo not drawn) [Compound 69] | 19.8 | 2.21 | 98.3 | 15.67 | 44 | 1.35 | 70.1 | 25.7 | 34.6 | 34.6 | ≥ 75 | 34.6 | 34.6 | 34.6 | 34.6 | 64.4 | 60.9 | 37.1 | 13.7 | 44.6 | EC50 (EBOV minigenome): 57.6 µM; WNV TI (WNV (WN-hRuPac cells)): 2.53 |
